PubChem BioAssay (NCI)
Where “and” joins values, the source holds several entries; their conditions need not be identical. Equal values may be shown once.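 Interpolation was linear, between the two tested concentrations surrounding the appropriate level; five concentrations were tested over 48 hours in 96-well plates. The concentration for 50% growth inhibition is given as GI50. Definition used: TGI = concentration required for complete inhibition of growth.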

What was measured:
Experiment in all cases: NCI anticancer screen, dose series, 48 h
MOLT-4 leukemia = tested on: MOLT-4 leukemia
EKVX NSCLC = tested on: EKVX NSCLC
786-0 renal = tested on: 786-0 renal
SF-539 CNS = tested on: SF-539 CNS
IGROV1 ovarian = tested on: IGROV1 ovarian
K-562 leukemia = tested on: K-562 leukemia
UACC-257 melanoma = tested on: UACC-257 melanoma
NCI-H522 lung = tested on: NCI-H522 lung
COLO 205 colon = tested on: COLO 205 colon
CAKI-1 renal = tested on: CAKI-1 renal

Row | SMILES | GI50 (MOLT-4 leukemia) [µM] | TGI (MOLT-4 leukemia) | GI50 (EKVX NSCLC) [µM] | TGI (EKVX NSCLC) | GI50 (786-0 renal) | TGI (786-0 renal) | GI50 (SF-539 CNS) | TGI (SF-539 CNS) | GI50 (IGROV1 ovarian) | TGI (IGROV1 ovarian) | GI50 (K-562 leukemia) [µM] | TGI (K-562 leukemia) | GI50 (UACC-257 melanoma) [µM] | TGI (UACC-257 melanoma) | GI50 (NCI-H522 lung) [µM] | TGI (NCI-H522 lung) | GI50 (COLO 205 colon) [µM] | TGI (COLO 205 colon) | TGI (CAKI-1 renal) | GI50 (CAKI-1 renal) [µM]
1 | COc1ccc(C(=O)/C(Br)=C/C(=O)O)cc1 | 21 | 98.5 µM and 86.5 µM | 28 | 181 µM and 115 µM | 10.8 µM and 30.7 µM | 56.1 µM and 99.1 µM | 9.18 µM and 27.3 µM | 90.7 µM and 87.3 µM | 121 µM and 144 µM | 321 µM and 461 µM | 18.8 | 281 µM and 352 µM | 21.9 | 74.4 µM and 85.1 µM | 13.3 | 50.4 µM and 22.9 µM | 15.1 | 34.4 µM and 54.2 µM | 148 µM and 154 µM | –
2 | CS(=O)(=O)CCNCc1nc(-c2ccc3ncnc(Nc4ccc(F)c(Cl)c4)c3c2)cs1 | 15.3 | > 25 µM | 0.0927 | > 25 µM | 22.9 µM | > 25 µM | > 25 µM | > 25 µM | 7.39 µM | > 25 µM | > 12.5 | > 19.7 µM | > 25 | > 25 µM | 3.34 | > 25 µM | > 20.5 | > 25 µM | > 25 µM | 1.47
3 | Cc1c2c(nn1-c1ccc(S(=O)(=O)NC(=S)Nc3ccccc3)cc1)-c1ccccc1CC2 | > 50 | > 50 µM | > 50 | > 50 µM | 26.4 µM | > 50 µM | > 50 µM | > 50 µM | 20.6 µM | > 50 µM | > 50 | > 50 µM | > 50 | > 50 µM | 21.5 | > 50 µM | > 50 | > 50 µM | 36.2 µM | 1.85
4 | COc1ccc2nc(N/N=C(\C)c3ccccn3)cc(C)c2c1 | 0.131 | 0.488 µM | 0.134 | 0.971 µM | 0.284 µM | 1.21 µM | 0.269 µM | 1.23 µM | 0.219 µM | 1.05 µM | 0.303 | 1.3 µM | 0.276 | 1.09 µM | 0.292 | 1.88 µM | 0.024 | 1.15 µM | 1.17 µM | 0.271
5 | Nn1c(-c2ccccc2)nc2ccc(Br)cc2c1=O | – | 50.5 µM | – | > 100 µM | – | > 100 µM | – | > 100 µM | – | > 100 µM | – | > 100 µM | – | > 100 µM | – | > 100 µM | – | > 100 µM | > 100 µM | –
6 | COc1cc2c(cc1OC)C(=O)/C(=C/c1cccc(OCC(=O)c3ccccc3)c1)C2 | 2.58 | 14 µM | 33.5 | > 100 µM | 35.5 µM | > 100 µM | 16.2 µM | 63.9 µM | 5.79 µM | > 100 µM | 3.11 | > 100 µM | 49.1 | > 100 µM | 4.6 | 50.5 µM | 28 | > 100 µM | 79.3 µM | 12.7
7 | O=C1NCc2ccc3c(-c4cccc(Cl)c4)c[nH]c3c21 | 0.256 | > 50 µM | 0.381 | > 50 µM | 0.276 µM | > 50 µM | 0.166 µM | 3.29 µM | 0.316 µM | > 50 µM | 0.134 | > 50 µM | > 42.9 | > 50 µM | 0.225 | > 39 µM | 0.297 | – | > 50 µM | 0.205
8 | COc1cc(C2C=C(c3cccc(NC(C)=O)c3)Nc3ncnn32)cc(OC)c1OC (stereo not drawn) | 1.65 | > 100 µM | 0.737 | > 100 µM | 0.615 µM | > 100 µM | 0.367 µM | 2 µM | 0.65 µM | > 26.5 µM | 0.447 | > 44.1 µM | > 92.5 | > 100 µM | 1.49 | > 100 µM | 0.308 | 1.73 µM | > 100 µM | 0.573
9 | CCOC(=O)c1ccc(NC(=O)N2CC(C)OC(C)C2)cc1 (stereo not drawn) | > 100 | > 100 µM | > 100 | > 100 µM | > 100 µM | > 100 µM | > 100 µM | > 100 µM | > 100 µM | > 100 µM | > 100 | > 100 µM | > 100 | > 100 µM | > 100 | > 100 µM | > 100 | > 100 µM | > 100 µM | > 100
10 | CNC(=O)c1cc(OC2CCC(NC(=O)Nc3ccc(Cl)c(C(F)(F)F)c3)CC2)ccn1 (stereo not drawn) | 4 | 21.5 µM | 7.46 | 58.7 µM | 8.34 µM | 25 µM | 12 µM | 29.6 µM | 13.4 µM | 39.6 µM | 3.66 | 17.3 µM | 5.68 | 20.3 µM | 4.16 | 16.9 µM | 8.81 | 22.3 µM | 31.9 µM | 6.75
